Measurements from the supplement of paper PMC11061612.

How the values were obtained:
Experiment in all cases: combination Emax (second highest fraction inhibited in the dose matrix, 72 h); higher = more inhibition; extreme values may be limits of the assay
ES4 (Ewing's Sarcoma) = system: ES4 (Ewing's Sarcoma)
Outline: (§1)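 After 24 hours at 37°C and 5% CO2 in 1536-well plates, cells in DMEM/F12 or RPMI plus 10% FBS received two-drug dose matrices for 72 hours. Viability came from CellTiter-Glo 2.0 luminescence and was scaled as inhibition, anchored at 0 by vehicle wells and at 1 by blank wells. Combination Emax is taken as the second-highest inhibition in the matrix, and Bliss excess as the observed combination effect less EA + EB − EA·EB, with EA and EB the single-agent effects.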

[1] = system: UM-UC-3 (Bladder Carcinoma)
Outline: as §1

[2] = system: NCI-H82 (Small Cell Lung Carcinoma)
Outline: as §1

[3] = system: KURAMOCHI (Ovarian Carcinoma)
Outline: as §1

NOS-1 (Osteosarcoma) = system: NOS-1 (Osteosarcoma)
Outline: as §1

[4] = system: TCCSUP (Bladder Carcinoma)
Outline: as §1

[5] = system: CAL-148 (Breast Carcinoma)
Outline: as §1

[6] = system: CaR-1 (Colorectal Carcinoma)
Outline: as §1

[7] = system: Daoy (Other Solid Carcinomas)
Outline: as §1

[8] = system: COLO-205 (Colorectal Carcinoma)
Outline: as §1

[9] = system: RC-K8 (B-Cell Non-Hodgkin's Lymphoma)
Outline: as §1

[10] = system: TE-9 (Esophageal Squamous Cell Carcinoma)
Outline: as §1

T98G (Glioblastoma) = system: T98G (Glioblastoma)
Outline: as §1

[11] = system: RO82-W-1 (Thyroid Gland Carcinoma)
Outline: as §1

[12] = system: SK-ES-1 (Ewing's Sarcoma)
Outline: as §1

[13] = system: HCC1806 (Breast Carcinoma)
Outline: as §1

[14] = system: SNU-5 (Gastric Carcinoma)
Outline: as §1

[15] = system: DEL (T-Cell Non-Hodgkin's Lymphoma)
Outline: as §1

[16] = system: Ramos-2G6-4C10 (Burkitt's Lymphoma)
Outline: as §1

[17] = system: B-CPAP (Thyroid Gland Carcinoma)
Outline: as §1

Structure (SMILES)	combination Emax (ES4 (Ewing's Sarcoma))	combination Emax [1]	combination Emax [2]	combination Emax [3]	combination Emax (NOS-1 (Osteosarcoma))	combination Emax [4]	combination Emax [5]	combination Emax [6]	combination Emax [7]	combination Emax [8]	combination Emax [9]	combination Emax [10]	combination Emax (T98G (Glioblastoma))	combination Emax [11]	combination Emax [12]	combination Emax [13]	combination Emax [14]	combination Emax [15]	combination Emax [16]	combination Emax [17]
NC1(C(=O)N[C@@H](CCO)c2ccc(Cl)cc2)CCN(c2ncnc3[nH]ccc23)CC1 [Capivasertib] + COc1nnc2ccc(N3CCC(c4ccc(OCCN5CCN(C)C(=O)[C@H]5C)cc4)CC3)nn12 [AZD5153] (first compound max 10 µM, 7x7, partner max 1 µM)	0.624	0.411	0.885	0.776	0.806	0.35	1	0.648	0.676	0.808	0.761	0.354	0.699	0.362	0.789	0.556	0.564	0.893	0.997	0.723
CN(CCO)CC[C@H](CSc1ccccc1)Nc1ccc(S(=O)(=O)NC(=O)c2ccc(N3CCC([C@@H](O)c4ccccc4-c4ccc(Cl)cc4)CC3)cc2)cc1S(=O)(=O)C(F)(F)F [AZD4320] + Cc1cc2ncnn2cc1Nc1ncc2c(n1)n(C1CCOCC1)c(=O)n2C [AZD7648] (first compound max 1 µM, 7x7, partner max 10 µM)	0.619	0.121	0.299	0.161	0.753	0.268	0.744	0.125	0.152	0.669	0.596	0.246	0.255	0.395	0.911	0.0765	0.45	0.315	0.718	0.408
CN(CCO)CC[C@H](CSc1ccccc1)Nc1ccc(S(=O)(=O)NC(=O)c2ccc(N3CCC([C@@H](O)c4ccccc4-c4ccc(Cl)cc4)CC3)cc2)cc1S(=O)(=O)C(F)(F)F [AZD4320] + Cn1cnc2c(F)c(Nc3ccc(Br)cc3Cl)c(C(=O)NOCCO)cc21 [Selumetinib] (first compound max 1 µM, 7x7, partner max 3 µM)	0.823	0.332	0.265	0.584	0.69	0.405	0.996	0.294	0.817	1	0.993	0.438	0.277	0.538	0.983	0.795	0.759	0.858	0.472	0.741
CC1(C)CCC(CN2CCN(c3ccc(C(=O)NS(=O)(=O)c4ccc(NCC5CCOCC5)c([N+](=O)[O-])c4)c(Oc4cnc5[nH]ccc5c4)c3)CC2)=C(c2ccc(Cl)cc2)C1 [Venetoclax] + C=CCn1c(=O)c2cnc(Nc3ccc(N4CCN(C)CC4)cc3)nc2n1-c1cccc(C(C)(C)O)n1 [AZD1775] (first compound max 1 µM, partner max 1 µM)	0.437	0.294	0.917	0.755	0.675	0.475	0.952	0.246	0.873	0.606	0.815	0.691	0.889	0.261	0.987	0.912	0.557	1	0.984	0.502
CC1(C)CCC(CN2CCN(c3ccc(C(=O)NS(=O)(=O)c4ccc(NCC5CCOCC5)c([N+](=O)[O-])c4)c(Oc4cnc5[nH]ccc5c4)c3)CC2)=C(c2ccc(Cl)cc2)C1 [Venetoclax] + CN(C)CCCOc1ccc(-c2ccc3ncc4c(c3c2)n(C2CCOCC2)c(=O)n4C)cn1 [AZD0156] (first compound max 1 µM, 7x7, partner max 1 µM)	0.173	0.252	0.343	0.567	0.194	0.189	0.716	0.145	0.168	0.237	0.316	0.141	0.332	0.126	0.374	0.139	0.222	0.192	0.627	0.28
NC1(C(=O)N[C@@H](CCO)c2ccc(Cl)cc2)CCN(c2ncnc3[nH]ccc23)CC1 [Capivasertib] + C[C@@H]1COCCN1C2=NC(=NC(=C2)C3(CC3)[S@](=N)(=O)C)C4=C5C=CNC5=NC=C4 [AZD6738] (first compound max 10 µM, 7x7, partner max 10 µM)	0.851	0.53	0.967	0.535	0.68	0.685	0.986	0.601	0.901	0.637	0.775	0.232	0.867	0.215	0.876	0.947	0.919	1	0.922	0.719
CN(CCO)CC[C@H](CSc1ccccc1)Nc1ccc(S(=O)(=O)NC(=O)c2ccc(N3CCC([C@@H](O)c4ccccc4-c4ccc(Cl)cc4)CC3)cc2)cc1S(=O)(=O)C(F)(F)F [AZD4320] + CN(C)CCCOc1ccc(-c2ccc3ncc4c(c3c2)n(C2CCOCC2)c(=O)n4C)cn1 [AZD0156] (first compound max 1 µM, 7x7, partner max 1 µM)	0.655	0.201	0.282	0.189	0.611	0.127	0.504	0.0707	0.156	0.77	0.407	0.263	0.126	0.469	0.899	0.133	0.245	0.357	0.345	0.408
NC1(C(=O)N[C@@H](CCO)c2ccc(Cl)cc2)CCN(c2ncnc3[nH]ccc23)CC1 [Capivasertib] + CC(C)n1c(=O)n(C)c2cnc3cc(F)c(-c4ccc(OCCCN5CCCCC5)nc4)cc3c21 [AZD1390] (first compound max 10 µM, 7x7, partner max 0.3 µM)	0.277	0.311	0.912	0.294	0.322	0.321	0.971	0.365	0.33	0.416	0.224	0.17	0.449	0.244	0.448	0.267	0.43	0.44	0.447	0.261
NC1(C(=O)N[C@@H](CCO)c2ccc(Cl)cc2)CCN(c2ncnc3[nH]ccc23)CC1 [Capivasertib] + CCN(CCO)CCCOc1ccc2c(Nc3cc(CC(=O)Nc4cccc(F)c4)[nH]n3)ncnc2c1 [AZD2811] (first compound max 10 µM, 7x7, partner max 1 µM)	0.422	0.298	0.925	0.332	0.355	0.389	1	0.501	0.501	0.831	0.53	0.267	0.437	0.215	0.974	0.378	0.499	0.859	0.807	0.394
CC1(C)CCC(CN2CCN(c3ccc(C(=O)NS(=O)(=O)c4ccc(NCC5CCOCC5)c([N+](=O)[O-])c4)c(Oc4cnc5[nH]ccc5c4)c3)CC2)=C(c2ccc(Cl)cc2)C1 [Venetoclax] + Cn1cnc2c(F)c(Nc3ccc(Br)cc3Cl)c(C(=O)NOCCO)cc21 [Selumetinib] (first compound max 1 µM, 7x7, partner max 3 µM)	0.0348	0.189	0.161	0.502	0.227	0.136	0.248	0.103	0.0883	0.718	0.227	0.0846	0.163	0.116	0.285	0.359	0.453	0.382	0.035	0.241
Cn1cnc2c(F)c(Nc3ccc(Br)cc3Cl)c(C(=O)NOCCO)cc21 [Selumetinib] + C[C@@H]1COCCN1C2=NC(=NC(=C2)C3(CC3)[S@](=N)(=O)C)C4=C5C=CNC5=NC=C4 [AZD6738] (first compound max 10 µM, 7x7, partner max 10 µM)	0.864	0.312	0.756	0.554	0.784	0.546	0.825	0.395	0.882	0.76	0.87	0.147	0.731	0.266	0.82	0.938	0.961	1	0.847	0.421
C[C@@H](c1ccc2nccn2c1)n1nnc2ncc(-c3cnn(C)c3)nc21 [Savolitinib] + Cc1c2c(nn1C)CSCc1cc(n(C)n1)CSc1cc(c3ccccc3c1)OCCCc1c(C(=O)O)n(C)c3c-2c(Cl)ccc13 [AZD5991] (first compound max 1 µM, 7x7, partner max 1 µM)	0.117	0.14	0.875	0.286	0.742	0.252	0.275	0.154	0.126	0.0758	0.113	0.239	0.12	0.169	0.781	0.2	0.937	1	0.975	0.211
